Drawing on ChEMBL document CHEMBL1208702, “Use of 2-[(18)F]fluoroethylazide for the Staudinger ligation - Preparation and characterisation of GABA(A) receptor binding 4-quinolones” (Bioorg Med Chem Lett, 2010), this text covers Ki for two compounds.

This assay can be described thus: Displacement of [3H]Ro151788 from GABA-A receptor in Wistar rat cerebellar membrane after 1 hr by liquid scintillation counting. Format: cell membranes, Cerebellum.

For the compound `O=C(NCCF)c1c[nH]c2ccc(Cc3ccccc3)cc2c1=O`, the Ki (as a rule, a dissociation constant, usually derived from enzyme kinetics or from competition with a known ligand) came to 0.7 nM. The same measure for `CCc1ccc2[nH]cc(C(=O)NCCF)c(=O)c2c1`: 3.6 nM.
